Earlier results on one compound are cited in patent publication US20200330379A1, “NON-ORAL CANNABINOID FORMULATION AND METHOD OF TREATMENT” (Navinta NV, Inc., priority 2019, published 2020).

For the series the following is noted: limited by first-pass metabolism.

In the case of `CCCCCc1cc(O)c2c(c1)OC(C)(C)[C@@H]1CCC(C)=C[C@@H]21` [THC, (6aR,10aR)-6,6,9-trimethyl-3-pentyl-6a,7,8,10a-tetrahydro-6H-benzo[c]-chromen-1-ol], the Oral bioavailability was 10% and 20.
